How the values were obtained:
[1] = system: TAMRA-(CUG)6 (RNA, repeat) CUGCUGCUGCUGCUGCUG; assay: fluorescence titration; conditions: PBS 1x (137 mM NaCl, 2.7 mM KCl); PBS pH 7.4, 20 °C; 20 nM RNA
MBNL1N, Cy3-labeled = molecular target: T1, MBNL1N, Cy3-labeled (UniProt Q9NR56 1-253); assay: single-molecule TIRFM
T1 sequence: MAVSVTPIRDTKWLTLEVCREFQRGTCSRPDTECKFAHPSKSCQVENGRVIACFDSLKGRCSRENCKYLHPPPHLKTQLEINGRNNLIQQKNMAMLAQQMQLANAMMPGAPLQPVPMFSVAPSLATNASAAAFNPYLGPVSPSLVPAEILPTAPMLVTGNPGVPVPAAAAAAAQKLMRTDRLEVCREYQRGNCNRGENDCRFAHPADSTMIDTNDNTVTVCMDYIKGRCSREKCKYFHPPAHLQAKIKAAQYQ

Row | Molecule | KD [1] | Kd (MBNL1N, Cy3-labeled)
1 | CNC(=O)c1ccc2nc3ccccc3c(NCCCCNc3nc(N)nc(N)n3)c2c1 | 66 ± 2 µM | –
2 | Nc1nc(N)nc(NCCCCNc2c3ccccc3nc3c(C(=O)NCCCNCCCNCCCNC(=O)c4cccc5c(NCCCCNc6nc(N)nc(N)n6)c6ccccc6nc45)cccc23)n1 | 0.318 ± 0.015 µM | –
3 | GCUGCUGUUCGCUGCUG (structured_RNA, 3' TEG-biotin) [(CUG)4 TIRF construct] | – | 0.0031 ± 0.0001 µM
